Patent publication US20120255051A1, “HERBICIDE TOLERANT PLANTS” (priority 2009, published 2012)
“And” between values parts separate entries of the source, which are not always exact repeats. Identical values can stand only once.

Experiments:
[1] = system: Brassica plants comprising mutant AHAS alleles; experiment: Field trial, post-emergence treatment (0, 10, 20 g a.i./ha), location A: PPTOX and VIG1 scores; assay type: in vivo, Brassica napus; conditions: for vigor1 (VIG1) score, Av: 7 days after spray
Description: The correlation between the presence of full knockout and missense AHAS genes in Brassica plants on plant growth and herbicide tolerance of the Brassica plants in the field on location A was also tested upon post-emergence herbicide treatment. The field setup was the same as for the pre-planting field trial. Post-emergence treatment was carried out on the 2-4 leaf stage with a rate of 0 (treatment A), 10 (treatment B), 20 (treatment C) g a.i./ha of thiencarbazone methyl. The phytotoxicity (PPTOX) and vigor1 (VIG1; vigor scores 7 days after herbicide spray) were determined as described above. The average values (Av) and standard deviations (SD) of the scores for the different parameters are represented in Table 9.

[2] = system: Brassica plants comprising mutant AHAS alleles; experiment: Greenhouse pre-planting application (20 g a.i./ha): vigor scores; assay type: in vivo, Brassica napus; conditions: 20 g a.i./ha
Description: In another experiment, the effect of combining AHAS full knockouts with AHAS missense herbicide tolerant alleles on tolerance to thiencarbazone-methyl pre-planting application and thiencarbazone-methyl post-emergence spraying was tested in the greenhouse. To this end, the Brassica plants identified in Example 1 and 2 were backcrossed two times with an elite parent line, and subsequently selfed twice to obtain homozygous plants (BC2S2). Treatment pre-planting was carried out on the soil just after sowing with a dose of 20 g a.i./ha of thiencarbazone methyl. For assessment of vigor scores, plants were evaluated on a scale of 1 to 9, where 1=dead, 3=poor, 6=some aberrant phenotype and 9=vigorous. The vigor scores are an average of the scores taken at 2, 3 and 4 weeks after treatment. Treatment post-emergence at the first leaf stage was carried out with a dose of 10 g a.i./ha of thiencarbazone-methyl. The vigor scores are an average of the scores taken 1, 2 and 3 weeks after the treatment. The average values (Av) and standard deviations (SD) of the vigor scores are represented in Table 6.

[3] = Elite parent line plants, 10 g a.i./ha (treatment B) post-emergence
[4] = Elite parent line plants, 20 g a.i./ha (treatment C) post-emergence
[5] = plants AHAS1 HETO108 / AHAS3 HETO104, 10 g a.i./ha (treatment B) post-emergence
[6] = plants AHAS1 HETO108 / AHAS3 HETO104, 20 g a.i./ha (treatment C) post-emergence
[7] = plants AHAS1 HETO108 / AHAS3 HETO111, 10 g a.i./ha (treatment B) post-emergence
[8] = plants AHAS1 HETO108 / AHAS3 HETO111, 20 g a.i./ha (treatment C) post-emergence
[9] = plants AHAS1 HETO108 / AHAS3 WT, 10 g a.i./ha (treatment B) post-emergence
[10] = plants AHAS1 HETO108 / AHAS3 WT, 20 g a.i./ha (treatment C) post-emergence
[11] = plants AHAS1 HETO112 / AHAS3 HETO111, 10 g a.i./ha (treatment B) post-emergence
[12] = plants AHAS1 HETO112 / AHAS3 HETO111, 20 g a.i./ha (treatment C) post-emergence
[13] = plants AHAS1 HETO112 / AHAS3 WT, 10 g a.i./ha (treatment B) post-emergence
[14] = plants AHAS1 HETO112 / AHAS3 WT, 20 g a.i./ha (treatment C) post-emergence
[15] = plants AHAS1 WT / AHAS3 HETO104, 10 g a.i./ha (treatment B) post-emergence
[16] = plants AHAS1 WT / AHAS3 HETO104, 20 g a.i./ha (treatment C) post-emergence
[17] = plants AHAS1 WT / AHAS3 HETO111, 10 g a.i./ha (treatment B) post-emergence
[18] = plants AHAS1 WT / AHAS3 HETO111, 20 g a.i./ha (treatment C) post-emergence
[19] = plants AHAS1 WT / AHAS3 WT, 10 g a.i./ha (treatment B) post-emergence
[20] = plants AHAS1 WT / AHAS3 WT, 20 g a.i./ha (treatment C) post-emergence

COC(=O)c1csc(C)c1S(=O)(=O)NC(=O)n1nc(OC)n(C)c1=O [thiencarbazone-methyl, methyl 4-[(4,5-dihydro-3-methoxy-4-methyl-5-oxo-1H-1,2,4-triazol-1-yl)carbonylsulfamoyl]-5-methylthiophene-3-carboxylate]
phytotoxicity (PPTOX) score, Av [1, 3]: 1.00 | vigor1 (VIG1) score, Av [1, 3]: 2.33 | phytotoxicity (PPTOX) score, Av [1, 4]: 1.00 | vigor1 (VIG1) score, Av [1, 4]: 2.33 | phytotoxicity (PPTOX) score, Av [1, 5]: 5.00 | vigor1 (VIG1) score, Av [1, 5]: 5.00 | phytotoxicity (PPTOX) score, Av [1, 6]: 4.00 | vigor1 (VIG1) score, Av [1, 6]: 4.00 | phytotoxicity (PPTOX) score, Av [1, 7]: 6.67 | vigor1 (VIG1) score, Av [1, 7]: 6.67 | phytotoxicity (PPTOX) score, Av [1, 8]: 6.00 | vigor1 (VIG1) score, Av [1, 8]: 6.00 | phytotoxicity (PPTOX) score, Av [1, 9]: 6.00 and 5.67 | vigor1 (VIG1) score, Av [1, 9]: 6.00 and 5.67 | phytotoxicity (PPTOX) score, Av [1, 10]: 4.33 | vigor1 (VIG1) score, Av [1, 10]: 4.67 and 4.33 | phytotoxicity (PPTOX) score, Av [1, 11]: 5.00 | vigor1 (VIG1) score, Av [1, 11]: 5.00 | phytotoxicity (PPTOX) score, Av [1, 12]: 4.67 | vigor1 (VIG1) score, Av [1, 12]: 4.67 | phytotoxicity (PPTOX) score, Av [1, 13]: 1.00 | vigor1 (VIG1) score, Av [1, 13]: 2.00 | phytotoxicity (PPTOX) score, Av [1, 14]: 1.00 | vigor1 (VIG1) score, Av [1, 14]: 1.67 | phytotoxicity (PPTOX) score, Av [1, 15]: 1.00 | vigor1 (VIG1) score, Av [1, 15]: 1.67 | phytotoxicity (PPTOX) score, Av [1, 16]: 1.00 | vigor1 (VIG1) score, Av [1, 16]: 1.67 | phytotoxicity (PPTOX) score, Av [1, 17]: 5.33 and 5.67 | vigor1 (VIG1) score, Av [1, 17]: 5.33 | phytotoxicity (PPTOX) score, Av [1, 18]: 4.67 | vigor1 (VIG1) score, Av [1, 18]: 4.67 | phytotoxicity (PPTOX) score, Av [1, 19]: 1.00 | vigor1 (VIG1) score, Av [1, 19]: 1.67 | phytotoxicity (PPTOX) score, Av [1, 20]: 1.00 | vigor1 (VIG1) score, Av [1, 20]: 2.00 | vigor score Av, pre-planting (2, 3 and 4 weeks after treatment) ([2]; AHAS1 +/+, AHAS3 +/+ (HETO108+HETO104 series)): 1.3 | vigor score Av, pre-planting (2, 3 and 4 weeks after treatment) ([2]; AHAS1 +/+, AHAS3 +/+ (HETO108+HETO111 series)): 1.4 | vigor score Av, pre-planting (2, 3 and 4 weeks after treatment) ([2]; AHAS1 +/+, AHAS3 +/+ (HETO112+HETO111 series)): 1.4 | vigor score Av, pre-planting (2, 3 and 4 weeks after treatment) ([2]; AHAS1 +/+, AHAS3 HETO104/HETO104): 1.3 | vigor score Av, pre-planting (2, 3 and 4 weeks after treatment) ([2]; AHAS1 +/+, AHAS3 HETO111/HETO111 (HETO108+HETO111 series)): 5.2 | vigor score Av, pre-planting (2, 3 and 4 weeks after treatment) ([2]; AHAS1 +/+, AHAS3 HETO111/HETO111 (HETO112+HETO111 series)): 4.8 | vigor score Av, pre-planting (2, 3 and 4 weeks after treatment) ([2]; AHAS1 HETO108/HETO108, AHAS3 +/+ (HETO108+HETO104 series)): 5.3 | vigor score Av, pre-planting (2, 3 and 4 weeks after treatment) ([2]; AHAS1 HETO108/HETO108, AHAS3 +/+ (HETO108+HETO111 series)): 4.4 | vigor score Av, pre-planting (2, 3 and 4 weeks after treatment) ([2]; AHAS1 HETO108/HETO108, AHAS3 HETO104/HETO104): 6.1 | vigor score Av, pre-planting (2, 3 and 4 weeks after treatment) ([2]; AHAS1 HETO108/HETO108, AHAS3 HETO111/HETO111): 7.6
